Publication PMC11945486, “TAS1R2/TAS1R3 Single-Nucleotide Polymorphisms Affect Sweet Taste Receptor Activation by Sweeteners: The SWEET Project” (Nutrients, 2025)
No end group written: not given here.

T1: human TAS1R2-R317G/TAS1R3-WT (Homo sapiens, UniProt Q7RTX0+Q8TE23, R317G)
T1 construct: expressed in transfected cells; host or cells: HEK293T-Gα16gust44
T1 sequence (Q8TE23 20-839 R317G): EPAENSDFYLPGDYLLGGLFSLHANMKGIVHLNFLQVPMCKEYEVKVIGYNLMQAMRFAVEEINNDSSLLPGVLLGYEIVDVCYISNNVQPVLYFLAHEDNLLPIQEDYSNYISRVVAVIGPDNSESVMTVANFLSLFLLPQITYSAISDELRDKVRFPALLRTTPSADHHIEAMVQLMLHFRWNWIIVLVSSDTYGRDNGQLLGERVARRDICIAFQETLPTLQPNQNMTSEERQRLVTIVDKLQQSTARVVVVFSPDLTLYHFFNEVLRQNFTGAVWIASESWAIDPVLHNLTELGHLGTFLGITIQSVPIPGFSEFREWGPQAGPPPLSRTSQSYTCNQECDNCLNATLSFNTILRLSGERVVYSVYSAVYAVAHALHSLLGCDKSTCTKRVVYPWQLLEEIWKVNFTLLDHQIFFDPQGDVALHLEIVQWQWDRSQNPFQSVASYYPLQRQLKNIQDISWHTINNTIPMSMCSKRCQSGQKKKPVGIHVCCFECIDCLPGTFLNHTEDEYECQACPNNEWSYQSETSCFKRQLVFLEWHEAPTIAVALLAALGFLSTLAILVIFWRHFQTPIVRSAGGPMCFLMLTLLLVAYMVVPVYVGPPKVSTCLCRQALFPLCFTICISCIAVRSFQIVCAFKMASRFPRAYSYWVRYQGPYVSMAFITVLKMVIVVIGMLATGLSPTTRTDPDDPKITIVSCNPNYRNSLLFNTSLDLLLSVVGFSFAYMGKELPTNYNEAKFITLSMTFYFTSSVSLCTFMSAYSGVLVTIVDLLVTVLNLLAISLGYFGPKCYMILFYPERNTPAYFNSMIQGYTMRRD
T1 sequence (Q7RTX0 21-852): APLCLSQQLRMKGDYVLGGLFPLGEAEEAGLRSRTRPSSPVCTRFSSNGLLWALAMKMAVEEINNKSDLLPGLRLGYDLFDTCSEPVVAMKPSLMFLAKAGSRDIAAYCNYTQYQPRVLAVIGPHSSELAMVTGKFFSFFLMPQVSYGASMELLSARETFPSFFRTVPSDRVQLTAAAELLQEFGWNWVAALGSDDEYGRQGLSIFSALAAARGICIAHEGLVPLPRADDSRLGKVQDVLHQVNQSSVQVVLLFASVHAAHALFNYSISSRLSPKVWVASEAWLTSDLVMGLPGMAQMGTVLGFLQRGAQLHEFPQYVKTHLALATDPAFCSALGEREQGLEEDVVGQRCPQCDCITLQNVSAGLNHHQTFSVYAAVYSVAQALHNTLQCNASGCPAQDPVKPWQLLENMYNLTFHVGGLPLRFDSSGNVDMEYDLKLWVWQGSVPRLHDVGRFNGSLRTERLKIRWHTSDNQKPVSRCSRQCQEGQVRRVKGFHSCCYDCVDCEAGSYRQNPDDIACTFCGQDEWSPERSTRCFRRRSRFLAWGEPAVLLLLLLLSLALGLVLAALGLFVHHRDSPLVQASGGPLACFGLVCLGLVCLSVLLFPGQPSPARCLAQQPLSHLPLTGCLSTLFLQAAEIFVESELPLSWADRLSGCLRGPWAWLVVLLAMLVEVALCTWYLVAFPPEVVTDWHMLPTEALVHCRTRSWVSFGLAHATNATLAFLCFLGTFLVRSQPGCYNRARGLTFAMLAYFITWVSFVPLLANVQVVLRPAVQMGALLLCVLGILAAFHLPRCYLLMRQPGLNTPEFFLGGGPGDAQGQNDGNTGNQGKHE


Biological target: T1, human TAS1R2-R317G/TAS1R3-WT
Test: Calcium mobilisation assay, TAS1R2 variant R317G with TAS1R3-WT
Assay type: cell-based
Details: for Max ΔF/F0: maximal signal amplitude
Text: The coding sequences for TAS1R2 and TAS1R3 were commercially synthesised, and the human codon was optimised for expression in human cells. The coding sequences of human TAS1R2 and TAS1R3 were subcloned and inserted into the mammalian expression vectors pcDNA6/myc-HisA and pcDNA4/myc-HisA (Invitrogen; Thermo Fisher Scientific; Illkirch, France) between the EcoRI and NotI restriction sites, generating the plasmids pcDNA6-TAS1R2 and pcDNA4-TAS1R3, respectively. To increase protein expression in mammalian cells, an upstream start codon was used, which was a sequence called MAX, corresponding to the QBI SP163 element also described in pcDNA4-HisMax (Invitrogen; Thermo Fisher Scientific; Illkirch, France). To measure the expression level of the receptor by immunohistochemistry, we used the FLAG sequence ([…]) in the C-terminal position, which encodes the FLAG tag epitope. SNP variants of TAS1R2 and TAS1R3 were constructed based on […], respectively, using site-directed mutagenesis (Genewiz; Leipzig, Germany).
The HEK293T cells were kindly provided by Jay P. Slack (Givaudan Flavors Corporation; Cincinnati, OH, USA). HEK293T cells stably transfected with Gα16gust44 [43, 67] were seeded in poly-D-lysine-coated clear-bottom black 96-well plates (0.35 × 10^5 cells/well) in high-glucose DMEM supplemented with 2 mM GlutaMAX, 10% dialysed foetal bovine serum with penicillin/streptomycin and G418 (400 μg/mL) at 37 °C and 6.3% CO2 in a humidified atmosphere as previously reported. […] As a negative control, HEK293T cells were mock-transfected with the empty expression vector. After a further 24 h of incubation, the HEK293T cells were washed with C1 buffer (130 mM NaCl, 5 mM KCl, 10 mM HEPES pH 7.4 and 2 mM CaCl2). The 96-well plates containing the cells were then stimulated with sweet-tasting compounds. […] Different concentration ranges were tested depending on the sweet compound injected. The Ca^2+ changes were expressed as fractional changes in fluorescent light intensity: ΔF/F = (F − F0)/F0, where F was the fluorescent light intensity at each point, and F0 was the value of emitted fluorescent light prior to stimulus application. To calculate dose–response relationships, the changes in fluorescence upon stimulus application were averaged, mock-subtracted and baseline-corrected. The dose–response data obtained were adjusted using a 4-parameter logistic equation. The half-maximal effective concentrations (EC50 values) and maximal signal amplitudes were calculated using SigmaPlot software (version 15.0) (Systat Software; San Jose, CA, USA).
For in vitro calcium mobilisation assay performed on hTAS1R2-SNPs, hTAS1R3-SNPs and mTAS1R3-I60T, 6 to 7 concentrations were tested for each sweet compound, plus buffer alone. All concentration–receptor combinations were measured in duplicate, and each experiment was repeated at least 4 times (8 wells/concentration). Results were expressed for each concentration as ΔF/F mean ± SEM and represented as dose–response curves.

Molecule | EC50 [µM] | R1 = Variant EC50/WT EC50 | Max ΔF/F0
CC1=CC(=O)NS(=O)(=O)O1 [Acesulfame K, acesulfame K] | 465 ± 55 | 0.7 | 0.46 ± 0.02
O=S(=O)(O)NC1CCCCC1 [Cyclamate, cyclamate] | 2160 ± 44 |  | 
C[C@H](CC[C@@H](O[C@@H]1O[C@H](CO[C@@H]2O[C@H](CO)[C@@H](O)[C@H](O)[C@H]2O)[C@@H](O)[C@H](O)[C@H]1O[C@@H]1O[C@H](CO)[C@@H](O)[C@H](O)[C@H]1O)C(C)(C)O)[C@H]1CC[C@@]2(C)[C@@H]3CC=C4[C@@H](CC[C@H](O[C@@H]5O[C@H](CO[C@@H]6O[C@H](CO)[C@@H](O)[C@H](O)[C@H]6O)[C@@H](O)[C@H](O)[C@H]5O)C4(C)C)[C@]3(C)[C@H](O)C[C@]12C [Mogroside V, mogroside V] | 18.4 ± 1 | 1.1 | 1.34 ± 0.03
COc1ccc(CCC(=O)c2c(O)cc(O[C@@H]3O[C@H](CO)[C@@H](O)[C@H](O)[C@H]3O[C@@H]3O[C@@H](C)[C@H](O)[C@@H](O)[C@H]3O)cc2O)cc1O [NHDC, neohesperidin dihydrochalcone] | 97.1 ± 5 | 1.3 | 0.85 ± 0.02
COC(=O)[C@H](Cc1ccccc1)NC(=O)[C@H](CC(=O)O)NCCC(C)(C)C [Neotame] | 0.73 ± 0.13 | 0.9 | 0.56 ± 0.03

Now from value to molecule:

EC50 [µM] | R1 = Variant EC50/WT EC50 | Max ΔF/F0 | Molecule
20.7 ± 0.6 | 1.2 | 1.53 ± 0.03 | C=C(C)[C@@H]1CC=C(/C=N/O)CC1 [Perillartine, perillartine]
20.4 ± 0.4 | 1.2 | 1.23 ± 0.01 | C=C1C[C@@]23CC[C@H]4[C@@](C)(CCC[C@@]4(C)C(=O)O[C@@H]4O[C@H](CO)[C@@H](O)[C@H](O[C@@H]5O[C@H](CO)[C@@H](O)[C@H](O)[C@H]5O)[C@H]4O[C@@H]4O[C@H](CO)[C@@H](O)[C@H](O)[C@H]4O)[C@@H]2CC[C@]1(O[C@@H]1O[C@H](CO)[C@@H](O)[C@H](O[C@@H]2O[C@H](CO)[C@@H](O)[C@H](O)[C@H]2O)[C@H]1O[C@@H]1O[C@H](CO)[C@@H](O)[C@H](O)[C@H]1O)C3 [Rebaudioside M, rebaudioside M]
62 ± 11 | 0.7 | 0.80 ± 0.05 | OC[C@H]1O[C@H](O[C@]2(CCl)O[C@H](CCl)[C@@H](O)[C@@H]2O)[C@H](O)[C@@H](O)[C@H]1Cl [Sucralose]
 | 1.3 | 1.18 ± 0.03 | brazzein (QDKCKKVYENYPVSKCQLANQCNYDCKLDKHARSGECFYDEKRNLQCICDYCEY; ends and bridges not checked; cysteine pairing not given here; UniProt P56552 1-54, looked up) [sweet-tasting protein obtained by recombinant production using the yeast Pichia pastoris]
 | 1.4 | 1.16 ± 0.02 | thaumatin
10.9 ± 0.3 |  |  | thaumatin (protein, Eight disulfides, sweet-tasting plant protein, E957) ATFEIVNRCSYTVWAAASKGDAALDAGGRQLNSGESWTINVEPGTKGGKIWARTDCYFDDSGSGICKTGDCGGLLRCKRFGRPPTTLAEFSLNQYGKDYIDISNIKGFNVPMDFSPTTRGCRGVRCAADIVGQCPAKLKAPGGGCNDACTVFQTSEYCCTTGKCGPTEYSRFFKRLCPDAFSYVLDKPTTVTCPGSSNYRVTFCPTA
